Experimental data as given in patent publication US20050054629A1, “Compounds and methods of treating cell proliferative diseases” (priority 2002, published 2005).

Key:
NIH3T3 cells = experiment: Colony formation assay with constitutively activated Ras (RasV12) and Rac (RacV12); assay type: cell-based, mouse; set-up: key to Colony formation: −: no effect of the compound was observed; +: an effect of the compound was observed
Protocol: (§1) The impact of the compounds on Ras and Rac signaling pathways was analysed with two reporter systems described by Imler (Nature 1988) and Lin (Science, 1995) respectively on one hand, and by a colony formation assay in the presence of constitutively activated Ras (RasV12) and Rac (RacV12) on the other hand. For this latter experiment, fifty percent confluent NIH3T3 cells in a 10 cm diameter petri dish were transfected with 0.5 μg pSV2-RasV12 or 0.5 μg pEXV RacV12 plasmids plus 100 ng of pSV2-neomycin plasmid using Lipofectamine-Plus reagent (Invitrogen) according to the manufacturer's instructions. Forty-eight hours later, cells were trypsinised, splitted to ⅓, and incubated in the presence of complete medium supplemented with 400 μg/ml geneticin (Invitrogen) and different doses of compound (1, 10, 17.5, 25 and 50 μM) until emerging resistant clones appear (2-3 weeks). The medium was renewed every 3 days. Colonies with a minimum of 50 cells were counted after staining with Fuschin 2%.

MCF-7 breast carcinoma = experiment: Cytotoxicity assay (MTT), 6 days; assay type: cell-based; conditions: Homo sapiens, MCF7, 144 h, 6 days of treatment, read-out: Toxicity 6d (IC 50, μM) MCF7
Procedure, shortened: (§2)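 5.10^3 or 2.10^4 cells/well plated, dosed next day (0, 1, 10, 17.5, 25, 50 μM; DMSO 1%). 6 d exposure → MTT 0.5 mg/ml, 3 h 37° C → DMSO solubilization → A550. IC50 calc., n=3.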

[1] = system: MDA-MB-231 breast carcinoma; experiment: Cytotoxicity assay (MTT), 6 days; assay type: cell-based; conditions: Homo sapiens, MDA-MB-231, 144 h, 6 days of treatment, read-out: Toxicity 6d (IC 50, μM) MDA231
Procedure, shortened: as §2

H460 lung carcinoma = experiment: Cytotoxicity assay (MTT), 6 days; assay type: cell-based; conditions: Homo sapiens, NCI-H460, 144 h, 6 days of treatment, read-out: Toxicity 6d (IC 50, μM) H460
Procedure, shortened: as §2

cell architecture = experiment: Cell architecture modification, phase contrast; assay type: cell-based; set-up: key: −: no effect of the compound was observed; +: an effect of the compound was observed
Rac = experiment: Rac-dependant signaling pathway analysis (reporter system); assay type: cell-based; set-up: key: −: no effect of the compound was observed; +: an effect of the compound was observed
Protocol: as §1

NIH3T3 = experiment: Cytoskeleton analysis, actin staining (FITC-phalloidin); assay type: cell-based, mouse; conditions: for Cell architecture modification actin staining (R: ruffles; FC: focal complexes) NIH3T3: 24 h treatment
Protocol: Since major rearrangements of cytoskeleton are observed in tumor cells and since the small GTPases are known to regulate these events, analysis of actin cytoskeleton was performed. Subconfluent cells seeded onto coverslips were treated with different concentration of compound (1, 10, 17.5, 25 and 50 μM) or vehicle for 24 h, before being fixed in 4% formaldehyde for 15 min., permeabilized in 0.2% Triton X100 for 5 minutes and incubated in PowerBlock (Biogenex) for 10 min. Actin filaments were stained with 0.5 μg/ml fluorescein isothiocyanate (FITC)-labelled phalloidin for 1 hour. Analysis was performed using an inverted fluorescent microscope.

Ras = experiment: Ras-dependant signaling pathway analysis (reporter system); assay type: cell-based; set-up: key: −: no effect of the compound was observed; +: an effect of the compound was observed
Protocol: as §1

[2] = system: HCT116 colon adenocarcinoma; experiment: Cytotoxicity assay (MTT), 6 days; assay type: cell-based, human; conditions: Homo sapiens, HCT-116, 144 h, 6 days of treatment, read-out: Toxicity 6d (IC 50, μM) HCT116
Procedure, shortened: as §2

MRC-5 = experiment: Cytotoxicity assay (MTT), 6 days; assay type: cell-based; conditions: Homo sapiens, MRC5, 144 h, 6 days of treatment, read-out: Toxicity 6d (IC 50, μM) MRC-5
Procedure, shortened: as §2

MDA-MB-231 cells [3] = experiment: Migration assay (Boyden chamber, non-coated filters); assay type: cell-based, human; conditions: MDA-MB-231, Boyden chamber
Protocol: One day after seeding, 10^6 MDA-MB-231 cells were treated overnight with different concentrations of compounds (1, 10, 17.5, 25 and 50 μM). Cells were collected with Versene (Invitrogen), counted with trypan blue exclusion, rinsed twice in serum-free medium containing 0.1% BSA and resuspended in serum-free medium containing 0.1% BSA plus the appropriate concentration of compound. 10^5 treated cells were placed in the upper chamber. Medium containing 10% of FBS plus the appropriate concentration of compound was placed in the lower chamber as a chemoattractant. The Boyden chamber was incubated 6 hours at 37° C. before the cells were fixed and stained with Diff-Quick (Dade-Berhing). Cells on the upper part of the filters were removed using a cotton swab. Cells on the underside of the filters were visualised and counted under light microscope.
The migration assay was performed the same way, using non-coated filters.

HCT116 cells = experiment: Anchorage-independent cell growth assay in soft agar, Example 32; assay type: cell-based, human
Protocol: FIG. 8: Effect of the treatment of HCT116 cells with the compounds on the size of the clones grown in soft agar. 5 10^3 cells were seeded in 24-well plates in 0.3% agar-containing medium supplemented with the designated amount of compounds. After 7 days of incubation at 37° C., pictures were taken of each well and were analyzed using the ImageJ image analysis software. In particular, clone size and number were calculated. The data were analyzed using GraphPad Prism, and IC50 was calculated.
In order to evaluate the effect of one compound on the capacity of tumour cells to grow without anchorage, HCT116 cells were seeded in soft agar. In contrast to microplate assays which average the drug's effects over an entire cell population, clonogenic assays offer the possibility of distinguishing cytotoxic agents (i.e., decreased colony number) from cytostatic agents (i.e., decreased colony size without decreased colony number; Murphy M. J. et al., 1996).
Briefly, 5 10^3 HCT116 cells were resuspended in 300 pi of complete medium containing 0.3% soft-agar (Difco) and different concentrations of compound (8 concentrations ranging from 0 to 30 μM). Cells were then poured on a solidified layer of medium containing 0.5% of soft agar plus the compound at the same concentration as in the upper layer. Cells were incubated for 7 days' at 37° C. before pictures of each well were taken using a phase contrast microscope (Nikon) and a digital camera (Nikon Coolpix 990). Pictures were subsequently analyzed using a free image analysis software from the NIH (ImageJ) allowing to determine clones size and number.
Data was analyzed using the GraphPad Prism software, and IC50 (dose leading to a 50% decrease of clone size or number) was calculated from dose-response curves. The ratio IC50 clone size/IC50 clone number was then calculated. When this ratio is equal to 1 (IC50 size=IC50 number), the compound is referred to as “cytotoxic”. When the ratio is close to 0 (IC50 size<<IC50 number), the compound is referred to as “cytostatic” (FIG. 6).

HCT116 = experiment: Cell viability assay (MTT), Example 32; assay type: cell-based, human; conditions: Homo sapiens, HCT-116, 144 h; day 6, 10% FBS
Protocol: FIG. 7: Antiproliferative effect of compounds on HCT116 (top) and MDA-MB-231 (bottom) cell lines measured by MTT viability assay. 2.5 10^3 (HCT116) or 7.5 10^3 (MDA-MB-231) cells were seeded in 48-well plates in growth medium containing 10% FBS, with or without various concentrations of test compounds. Cell cultures were fed every 3 days with the appropriate media. Cell viability was determined on day 6. Data were analyzed and IC50s were calculated from the dose-response curves using GraphPad Prism.
In order to determine one compound effect on cell viability, microculture tetrazolium assay (MTT) was performed as described by Carmichael et al., (1996) with modifications. Four human tumoral cell lines, namely HCT116 colon adenocarcinoma, H460 lung carcinoma, MCF-7 and MDA-MB-231 breast carcinoma cell lines, and 3 immortalized but non tumorigenic cell lines, namely NIH3T3 mouse fibroblasts and human breast-derived MCF10-A and human lung-derived MRC-5 were purchased at ATCC and cultured according to their recommendations. Briefly, 2.5 10^3 to 2 10^4 cells per well were seeded in 48-well plates 24 hours before drug addition. Cells were treated with 0 to 200 μM (11 concentrations) of compound solubilized in DMSO, adjusting the final concentration of DMSO to 1% in the well. Six days after treatment, the medium was replaced by PBS containing 0.5 mg/ml MTT (Sigma) and cells were incubated for 1-3 hours at 37° C. before solubilization of formazan crystals in 100% DMSO. Absorbance was measured using a spectrophotometer at a wavelength of 550 nm. Data was analyzed using the GraphPad Prism software (GraphPad Software, Inc., San Diego, USA), and IC50 (dose leading to 50% cell death) was calculated from the dose-response curves.

MDA-MB-231 cells [4] = experiment: Migration assay (Fluoroblock inserts), Example 32; assay type: cell-based, human; conditions: 16 hours
Protocol: FIG. 10: Migration of MDA-MB-231 cells in the presence of various concentrations of L651582, and EHT 0823. 5 10^4 MDA-MB-231 cells, resuspended in culture medium with or without Fetal Bovine Serum (FBS), were seeded in the upper Boyden blind well on top of 8 μm pore-sized filters. The ability of cells to migrate through the filter was assayed in the absence or presence of FBS in the lower Boyden well. After incubation at 37° C. for 16 hours, the medium was removed and replaced with calcein containing medium. After labelling, cells were washed and resuspended in HBSS and fluorescence was read in a fluoroskan. Fluorescence values were normalized against the fluorescence obtained for the 1% DMSO control. The data plotted are the means±SEM for 2 wells under the different conditions.
An essential characteristic of malignant cells is their ability to migrate, invade host tissues and to produce metastases. In order to evaluate the capacity of one compound to affect the ability of tumoral cells to migrate, migration assays were performed using highly invasive tumoral cells MDA-MB-231. This assay was performed using Falcon HTS Fluoroblock inserts. Culture medium containing Fetal Bovine Serum (FBS; which is used as a chemoattractant) was added to the plate wells and 2 10^4 MDA-MB-231 cells resuspended in medium without FBS and with 0.1% BSA were added to each insert well. The compound of interest was added to the medium in both the upper and the lower chambers. Plate were incubated for 16 hours at 37° C. Following incubation, the medium was removed from the upper chamber and the entire insert plate was transferred to a second 24-well plate containing 4 μg/ml Calcein-AM in medium containing 0.1% BSA. The plates were incubated for one hour at 37° C., rinsed with Hanks Buffered Saline (HBSS). Fluorescence data were collected using Fluoroskan Ascent FL fluorescence plate reader at an excitation wavelength (Ex) of 485 nm and emission wavelength (Em) of 517 nm. Only those labelled cells that passed through the Matrigel layer and the membrane were detected. Data were analyzed using the GraphPad Prism software.

IC50 anchorage-independent growth of HCT116 (clone size) in soft agar (HCT116 cells; 7 days) | IC50 (HCT116) [µM] | Structure (SMILES) | Colony formation (NIH3T3 cells) | IC50 (MCF-7 breast carcinoma) [µM] | IC50 [1] [µM] | IC50 (H460 lung carcinoma) [µM] | Cell architecture modification phase contrast (cell architecture) | Small GTPases activities Rac (Rac) | general morphology of NIH3T3 cells, as detected by β-actin staining (NIH3T3) | Cell architecture modification actin staining (R: ruffles; FC: focal complexes) NIH3T3 (NIH3T3) | Small GTPases activities Ras (Ras) | IC50 [2] [µM] | IC50 (MRC-5) [µM] | Migration (MDA-MB-231 cells [3]) | inhibition of migration of MDA-MB-231 cells (MDA-MB-231 cells [4]; 10 μM compound) | inhibition at 50 µM (MDA-MB-231 cells [4]; Homo sapiens, MDA-MB-231, 50 μM compound) [%] | mode of action (cytotoxic vs cytostatic) (HCT116 cells; HCT116 soft agar) | ratio IC50 clone size/IC50 clone number (HCT116 cells; HCT116 soft agar, 7 days) | inhibition of migration of MDA-MB-231 cells (MDA-MB-231 cells [4]; 50 μM compound) | inhibition at 10 µM (MDA-MB-231 cells [4]; Homo sapiens, MDA-MB-231, 10 μM compound) [%]
 |  | O=c1cc(CO)occ1OCCCCCOc1ccc(Cl)c(Cl)c1 [EH5500, 5-[5-(3,4-Dichlorophenyloxy)pentyloxy]-2-(hydroxymethyl)-4H-pyran-4-one] | − | 35 | > 50 | 15 | + | − | affected | cell destructuration | − | 50 |  |  |  |  |  |  |  | 
 |  | O=c1cc(CO)occ1OCCCCCOc1cccc(Cl)c1 [EH10600, 5-[5-(3-Chlorophenyloxy)pentyloxy]-2-(hydroxymethyl)-4H-pyran-4-one] | − | 40 | 10 | 25 | + | − | affected | cell destructuration | − | > 50 |  |  |  |  |  |  |  | 
 |  | O=c1cc(CO)occ1OCCCCOc1ccc(Cl)c(Cl)c1 [EH17700, 5-[4-(3,4-Dichlorophenyloxy)butyloxy]-2-(hydroxymethyl)-4H-pyran-4-one] | − | 20 | 15 to 20 | 15 | − | − |  |  | − | 30 | > 50 | no effect |  |  |  |  |  | 
micromolar range | 1.5 to 4 | O=c1cc(COC2CCCCO2)occ1OCCCCCn1ccc2cc(Cl)ccc21 (centres unmarked) [EHT 0823, 5-[5-(5-Chloro-indol-1-yl)-pentyloxy]-2-(tetrahydro-pyran-2-yloxymethyl)-4H-pyran-4-one] |  |  |  |  |  |  |  |  |  |  |  |  | No significant inhibition | 90 |  |  |  | 
 |  | NC(=O)c1nnn(Cc2cc(Cl)c(C(=O)c3ccc(Cl)cc3)c(Cl)c2)c1N [L651582, carboxyamidotriazole, reference compound] |  |  |  |  |  |  |  |  |  |  |  |  |  |  | cytostatic | 0.3 | Complete inhibition | ~40
